Earlier results as cited in patent publication US20130149346A1, “DABIGATRAN ETEXILATE-CONTAINING PHARMACEUTICAL COMPOSITION” (ratiopharm GmbH Graf-Arco-Strasse 3, priority 2010, published 2013).

Conditions: in the acidic environment

pH-dependent solubility: greatly increased
SMILES: CCCCCCOC(=O)NC(=N)c1ccc(NCc2nc3cc(C(=O)N(CCC(=O)OCC)c4ccccn4)ccc3n2C)cc1 [dabigatran etexilate, 3-[(2-{[4-(hexyloxycarbonylamino-imino-methyl)-phenylamino]-methyl}-1-methyl-1H-benzimidazole-5-carbonyl)-pyridine-2-yl-amino]-propionic acid ethyl ester]
